# Measurements as given in the supplement of paper PMC10307832.
# How the values were obtained:
# Experiment in all cases: relative viability (nuclei count vs DMSO), 5 days (fraction); higher = more cells survive
# [1] = compound: CC1=NC=CC(=C1)C2=CC=C(C=C2)CC(=O)NC3=CC=C(C=C3)C4=CN=CC=C4 [Wnt-C59] + CC(=O)c1c(C)c2cnc(Nc3ccc(N4CCNCC4)cn3)nc2n(C2CCCC2)c1=O [Palbociclib] (partner 0.5 µM)
# Method in brief: (§1)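 Relative viability is defined as nuclei in treated wells over nuclei in vehicle wells. Duplicate plates were run and medians reported. Lung cancer cell lines in 1536-well plates were dosed by pin tool one day after seeding, with one drug or with a fixed anchor-drug dose plus five library-drug doses (not always all listed) in √10 steps, and nuclei were counted after 5 days.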
# [2] = compound: CS(=O)(=O)CCNCc1ccc(-c2ccc3ncnc(Nc4ccc(OCc5cccc(F)c5)c(Cl)c4)c3c2)o1 [Lapatinib] + Cc1cc(Nc2cc(N3CCN(C)CC3)nc(Sc3ccc(NC(=O)C4CC4)cc3)n2)n[nH]1 [Tozasertib] (partner 0.1 µM)
# Method in brief: as §1
# [3] = compound: CC1=NC=CC(=C1)C2=CC=C(C=C2)CC(=O)NC3=CC=C(C=C3)C4=CN=CC=C4 [Wnt-C59]
# Method in brief: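 Five library-drug doses, separated by factors of √10, were pinned into 1536-well plates holding lung cancer cell lines after an overnight stay at 37 °C. Cells were fixed, permeabilised and Hoechst-stained in one step after 5 days without medium change, then imaged at 4×. Viability compares treated-well with vehicle-well nuclei, counted in MetaXpress, as a median across plates. Passing plates had control CV below 25% and at least one doubling.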
# [4] = compound: CS(=O)(=O)CCNCc1ccc(-c2ccc3ncnc(Nc4ccc(OCc5cccc(F)c5)c(Cl)c4)c3c2)o1 [Lapatinib] + CC(C)C[C@H](NC(=O)[C@H](Cc1ccccc1)NC(=O)c1cnccn1)B(O)O [Bortezomib] (partner 0.002 µM)
# Method in brief: as §1
Cell Line,relative viability ([1]; first compound 0.001 µM),relative viability ([1]; first compound 0.01 µM),relative viability ([1]; first compound 0.03162 µM),relative viability ([1]; first compound 0.1 µM),relative viability ([2]; first compound 0.06325 µM),relative viability ([2]; first compound 0.2 µM),relative viability ([2]; first compound 0.6325 µM),relative viability ([2]; first compound 2 µM),relative viability ([3]; 0.001 µM),relative viability ([3]; 0.01 µM),relative viability ([3]; 0.03162 µM),relative viability ([3]; 0.1 µM),relative viability ([4]; first compound 0.06325 µM),relative viability ([4]; first compound 0.2 µM),relative viability ([4]; first compound 0.6325 µM),relative viability ([4]; first compound 2 µM),relative viability ([4]; first compound 0.02 µM),relative viability ([2]; first compound 0.02 µM)
NCI-H522,0.912,1.04,1.15,0.892,0.433,0.523,0.561,0.513,1.04,0.927,0.994,0.957,,,,,,
NCI-H650,0.276,0.344,0.302,0.323,0.648,0.781,0.698,0.601,0.886,0.952,1.03,0.974,0.662,0.653,0.86,0.841,,
NCI-H460,0.185,0.145,0.207,0.147,0.298,0.0669,0.0896,0.06,0.973,0.95,1.02,0.957,1.02,1.15,0.984,1.11,1.02,0.0815
HCC-827,0.499,0.524,0.492,0.511,0.418,0.414,0.412,0.144,1.1,1.05,1.02,1.06,1.04,1.1,0.94,1.07,0.982,0.41
NCI-H647,0.346,0.326,0.388,0.316,0.197,0.184,0.212,0.183,0.914,1,0.934,0.946,0.708,1.11,1.13,0.871,0.909,0.312
SW 1573,0.413,0.368,0.466,0.408,0.164,0.143,0.12,0.159,1.02,0.967,1.1,0.91,0.892,0.953,1.18,1.01,1.01,0.121
NCI-H2170,0.393,0.397,0.416,0.367,0.553,0.565,0.403,0.169,0.997,0.879,0.939,0.975,,,,,,0.704
NCI-H358,0.134,0.128,0.153,0.1,0.0876,0.0913,0.078,0.0817,1.01,0.785,0.957,0.975,,,,,,0.0946
COR-L 105,0.362,0.373,0.379,0.438,0.351,0.355,0.294,0.244,0.992,0.948,0.94,0.921,0.512,0.637,0.524,0.378,0.503,0.351
PC-3 [JPC-3],0.498,0.532,0.505,0.512,0.83,0.909,0.803,0.506,1.04,1.06,1.05,1.14,0.796,0.818,0.864,0.837,,0.876
NCI-H1993,0.694,0.648,0.663,0.602,,0.574,0.518,0.486,0.86,0.751,1.04,0.909,,0.871,0.889,0.627,0.88,0.518
NCI-H1734,0.382,0.334,0.36,0.364,0.276,0.274,0.242,0.232,0.986,0.961,1.01,0.957,0.839,1.02,0.993,0.862,,0.272
ChaGo-K-1,0.97,0.885,0.953,0.957,0.194,0.206,0.2,0.208,0.951,1.01,1.03,0.958,1.04,0.863,0.956,0.738,,0.218
LU99A,0.451,0.372,0.446,0.417,0.293,0.239,0.195,0.216,0.946,0.923,1.09,0.936,0.932,1.15,1.15,0.94,1.05,0.281
ABC-1,0.621,0.693,1.03,0.923,0.187,0.156,0.155,0.16,0.938,1.01,1.01,0.952,0.362,0.324,0.434,0.333,,0.155
HCC-44,0.982,0.977,1.04,1,0.622,0.81,0.762,0.725,1.04,0.972,0.979,1.04,0.855,0.901,0.953,0.8,0.762,
NCI-H1650,0.341,0.321,0.318,0.378,0.325,0.399,0.288,0.168,1.02,0.898,0.957,0.826,0.206,0.223,0.192,0.243,0.203,0.354
NCI-H596,,,,,0.741,0.856,0.779,0.567,0.93,0.936,1.12,1.06,1.04,0.964,1.03,0.776,1.17,
NCI-H1915,0.516,0.521,0.473,0.572,0.367,0.437,0.383,0.319,0.995,0.942,0.969,1,0.973,1.04,0.915,0.953,,
NCI-H1395,0.598,0.652,0.566,0.573,0.774,0.701,0.683,0.677,0.995,0.873,0.952,1.03,,,,,,0.716
CAL-12T,0.483,0.375,0.556,0.394,0.274,0.333,0.273,0.122,0.975,1.04,0.965,1.04,0.765,0.822,0.743,0.649,,
SW 900,0.48,0.461,0.608,0.54,0.35,0.374,0.298,0.276,0.681,0.755,0.793,0.823,,,,,,

Cell Line,relative viability ([1]; first compound 0.001 µM),relative viability ([1]; first compound 0.01 µM),relative viability ([1]; first compound 0.03162 µM),relative viability ([1]; first compound 0.1 µM),relative viability ([2]; first compound 0.06325 µM),relative viability ([2]; first compound 0.2 µM),relative viability ([2]; first compound 0.6325 µM),relative viability ([2]; first compound 2 µM),relative viability ([3]; 0.001 µM),relative viability ([3]; 0.01 µM),relative viability ([3]; 0.03162 µM),relative viability ([3]; 0.1 µM),relative viability ([4]; first compound 0.06325 µM),relative viability ([4]; first compound 0.2 µM),relative viability ([4]; first compound 0.6325 µM),relative viability ([4]; first compound 2 µM),relative viability ([4]; first compound 0.02 µM),relative viability ([2]; first compound 0.02 µM)
NCI-H2342,0.491,0.488,0.55,0.504,0.489,0.455,0.538,0.354,1.01,1,0.989,1.03,,,,,,0.495
NCI-H1299,,,,,,,,,1.03,1.03,1.03,1.01,1.04,1.02,1.01,0.996,1.05,
HARA,0.27,0.231,0.325,0.22,0.0893,0.0933,0.0794,0.119,0.952,0.874,1.19,1.02,0.579,1.05,0.961,0.694,1.08,
H3255,0.354,0.331,0.302,0.311,0.45,0.591,0.527,0.282,1.03,0.887,1.06,0.966,0.735,0.581,0.575,0.395,0.633,0.317
NCI-H1792,0.673,0.655,0.672,0.656,,,,,0.918,0.921,0.705,1.07,0.718,0.922,0.923,1.02,0.892,
NCI-H2023,0.389,0.4,0.399,0.371,,0.191,0.204,0.137,0.948,1.03,1.15,0.801,0.712,0.969,1.1,0.913,0.135,0.249
HCC-78,0.476,0.488,0.494,0.455,0.327,0.407,0.377,0.328,0.814,1.02,0.99,1.12,,0.463,0.407,0.297,0.546,
NCI-H1623,,,,,0.344,,0.379,0.154,0.948,0.812,1.02,0.994,,,,,,0.423
HOP-62,0.468,0.403,0.49,0.493,0.343,0.377,0.343,0.295,0.998,1,1.06,0.953,0.857,0.577,0.99,0.761,,0.334
NCI-H1755,0.454,0.447,0.438,0.416,0.583,0.559,0.483,0.486,0.994,0.969,0.999,0.914,0.919,0.997,0.984,0.874,0.807,0.549
SK-MES-1,0.29,0.321,0.316,0.339,0.996,1.07,0.943,0.495,1.01,1.05,1.06,0.993,,,,,,0.894
Calu-6,,,,,,,,,1.02,1.01,1.05,0.987,0.951,1.03,1.02,0.906,0.887,
A549,,,,,,,,,0.966,0.978,1.01,0.893,,,,,,
LK-2,0.524,0.739,0.705,0.535,,0.174,0.146,0.19,0.958,0.982,0.993,1.12,,,,,,
NCI-H1703,,,,,,,,,1.02,0.967,1.05,0.97,0.313,0.317,0.24,0.32,0.316,
NCI-H1563,,,,,,,,,1.07,0.933,0.954,0.941,0.741,0.826,0.902,0.834,0.952,
NCI-H1944,0.343,0.328,0.334,0.339,0.216,0.239,0.205,0.181,0.956,0.945,1.07,1.01,,,,,,0.245
IA-LM,,,,,,,,,1.05,0.909,0.94,0.884,0.788,0.893,0.88,0.839,0.787,
NCI-H1793,0.296,0.259,0.355,0.321,0.286,0.213,0.185,0.142,0.78,0.681,1.1,0.976,,,,,,
EBC-1,,,,,,,,,1.08,0.995,1.02,0.904,0.561,0.539,0.534,0.455,0.542,
NCI-H1648,0.288,0.241,0.259,0.23,0.215,0.689,0.361,0.325,0.881,1.06,1.05,0.9,,,,,,0.361
